# Publication PMC12683216, “Using High‐Throughput Screening to Identify Crosslinking Peptides That Control Cell‐Mediated Matrix Degradation” (Advanced Healthcare Materials, 2025)
# Where two headings read alike, the source gives them in different places. Where a SMILES comes first, the peptide text is derived from it. [ ]: non-standard residue; d: D form. βAla = NCCC(=O)O
# Columns and labels:
# Format in all cases: in vitro ADME, human
# hUVECs = assay: Soluble peptide degradation, Cells condition (LC-MS); conditions: Figure 3B heatmap; split-and-pool libraries KLVADX1X2ASAE in media on hUVECs; 24 h; LC-MS, ratio to βFβA6; N = 2
# Summary of the method: (§1)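 Pooled synthetic TAILS-derived peptides added to hUVEC or hMSC cultures (Cells) or cell-free conditioned media (Media); MMP-14 inhibitor NSC 405 020 at 10 µM final. Samples taken at 0 and 24 h, acidified, analysed by LC-MS; peak areas normalised to 50 µM βFβA6 internal standard, 24 h/0 h gives fraction remaining.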
# [1] = as above; conditions: human, 24 h, LC-MS, ratio to βFβA6
# Summary of the method: as §1
# MMP-14 = assay: as above; conditions: human, with NSC 405 020 (MMP-14 inhibitor), Figure 3C, 50 µM peptide, 24 h, LC-MS, N = 6
# Summary of the method: as §1
# hMSCs = assay: as above; conditions: Figure 3C; individually synthesized soluble peptide, 50 µM, media on hMSCs; 24 h; LC-MS, ratio to βFβA6; N = 6
# Summary of the method: as §1
# [2] = Soluble peptide degradation, Media condition (cell-conditioned media, LC-MS); conditions: 24 h, LC-MS, ratio to βFβA6
# Summary of the method: (§2)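 Pooled peptide library added to medium conditioned by hUVECs or hMSCs with cells removed. Fraction remaining after 24 h measured by LC-MS (positive-ion ESI). Value is peptide peak area relative to 50 µM non-degradable βFβA6 internal standard.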
# [3] = as above; conditions: 24 h, LC-MS, ratio to βFβA6; remark: listed apart in the source
# Summary of the method: as §2
compound,measurement,setting,value
CC(=O)NCCC(=O)N[C@@H](CCCCN)C(=O)N[C@@H](CC(C)C)C(=O)N[C@H](C(=O)N[C@@H](C)C(=O)N[C@@H](CC(=O)O)C(=O)N[C@@H](Cc1ccc(O)cc1)C(=O)N[C@@H](Cc1c[nH]c2ccccc12)C(=O)N[C@@H](C)C(=O)N[C@@H](CO)C(=O)N[C@@H](C)C(=O)N[C@@H](CCC(=O)O)C(=O)NCCC(N)=O)C(C)C [KLVAD-YW] (Ac-[βAla]KLVADYWASAE[βAla]-NH2),Fraction of peptide remaining after 24 hours: hUVEC Cells,hUVECs,0.86
same,remaining at 24 h,"[1]; hMSCs in culture with fresh media (Cells condition), Figure 3B heatmap, split-and-pool libraries KLVADX1X2ASAE (19 or 38 peptides per library) in media on hMSCs, N = 2, read-out: Fraction of peptide remaining after 24 hours: hMSC Cells",53%
same,"remaining at 24 h, 50 µM","[1]; hUVECs in culture with fresh media (Cells condition), Figure 3C, individually synthesized soluble peptide, 50 µM, media on hUVECs, N = 6, read-out: Fraction of peptide remaining after 24 hours: hUVEC Cells",72%
same,"remaining at 24 h, 50 µM","MMP-14; media on hMSCs with MMP-14 inhibitor NSC 405 020 10 µM, read-out: Fraction of peptide remaining after 24 hours: hMSC +Inhibitor",76%
same,"remaining at 24 h, 50 µM","MMP-14; media on hUVECs with MMP-14 inhibitor NSC 405 020 10 µM, read-out: Fraction of peptide remaining after 24 hours: hUVEC +Inhibitor",98%
same,Fraction of peptide remaining after 24 hours: hMSC Cells,hMSCs,0.4
same,Fraction of peptide remaining after 24 hours: hMSC Media,"[2]; Figure 3C, individually synthesized soluble peptide, 50 µM, hMSC-conditioned media without cells, N = 6",0.91
same,remaining at 24 h,"[2]; human, hMSC-conditioned media without cells (Media condition), Figure 3B heatmap, split-and-pool libraries KLVADX1X2ASAE in hMSC-conditioned media without cells, N = 2, read-out: Fraction of peptide remaining after 24 hours: hMSC Media",78%
same,Fraction of peptide remaining after 24 hours: hUVEC Media,"[3]; Figure 3B heatmap, split-and-pool libraries KLVADX1X2ASAE in hUVEC-conditioned media without cells, N = 2",0.96
same,Fraction of peptide remaining after 24 hours: hUVEC Media,"[3]; Figure 3C, individually synthesized soluble peptide, 50 µM, hUVEC-conditioned media without cells, N = 6",0.92
